Results: patent US20050170028A1, “Polysaccharide extract from Lycium barbarum as neuroprotective agent against beta-amyloid peptide neurotoxicity” (priority 2004, published 2005)

Legend:
Format in all cases: cell-based
caspase-3 = experiment: colorimetric caspase-3 activity assay in neurons exposed to Aβ-peptide
Protocol: Caspase-3 has long been regarded as an index for neuronal apoptosis. Therefore, the colorimetric caspase-3 activity assay was performed at the concentrations stated in FIG. 5, and neuronal apoptosis was determined by the colorimetric caspase-3 activity assay by measuring the absorbance (at 405 nm) of the yellow product (pNA) cleaved from the substrate. Results (***p<0.001 vs. the group treated with Aβ-peptide alone, by one-way ANOVA, Tukey test) are expressed as mean±SE from at least three independent experiments.
Caspase-3 is a general apoptosis marker. For apoptosis analysis, the colorimetric caspase-3 activity assay (at 405 nm) was performed.
It is also a well-known Western medicine for the treatment of manic-depressive bi-polar disorder. […] Neurons were pretreated with either LiCl (2 mM to 20 mM) or LBA (0.1 μg/ml to 500μ/ml) for 1 hour, and then exposed to Aβ25-35 peptide (25 μM) for 24 hours. Caspase-3 activity assay was used to determine the protective effects against Aβ-peptide toxicity. […] The unit of concentration of LiCl was converted from mM to μ/ml for the purpose of comparison with LBA. […] The toxicity decreased when the concentration of LiCi increased and it reached the lowest value (8.5%) when LiCi was used at 850 μ/ml (20 mM). Accordingly, LiCl could effectively reduce Aβ-peptide-stimulated caspase-3 activity in the range of 340 μg/ml to 850 μg/ml (i.e. 8 mM to 20 mM). LBA exerted protective effects for neurons against Aβ-peptide toxicity from very low concentration to high concentration (0.1 μg/ml to 500 μg/ml).
It has been reported that specific inhibitor of JNK, SP600125, also exerts protection for neurons against Aβ-peptide toxicity. We therefore compared the therapeutic window of SP600125 with LBA to elucidate their effectiveness in neuroprotection. Neurons were pretreated with either SP600125 (5 μM to 20 μM) or LBA (0.1 μg/ml to 500 μg/ml) for 1 hour, and then exposed to Aβ-peptide (25 μM) for 16 hours. Caspase-3 activity assay was done to investigate their protective effects against Aβ-peptide toxicity. Thus, after treatment, colorimetric caspase-3 activity assay was done to examine the level of apoptosis. Caspase-3 activity was expressed as % toxicity. Results are expressed as mean±SE from at least three independent experiments. % toxicity is calculated as: (s.a.of Aβ-/LBA-/SP-treated−s.a.control)÷(s.a.Aβ-treated−s.a.control). […] The unit of concentration of SP600125 was converted from […] to μg/ml for the purpose of comparison with LBA. […] The toxicity was 100% when using SP600125 at more than 20 μM (data not shown). SP600125 was effective from 1.1 μg/ml to 4.4 μ/ml; the range is very narrow when compared with that of LBA.
(§1) We separated different fractions by ion-exchange chromatography. Activity of caspase-3 served as an index for neuronal apoptosis. […] The biochemical analysis of caspase-3 activity was confirmed by morphological examination (FIG. 17). Upon exposure to Aβ peptide, neurites were broken and neurons were undergoing apoptosis.
For apoptosis analysis, the activity of caspase-3 serves as an index for neuronal apoptosis. […] A hundred microgram per […] exerted a nearly 100% neuroprotective effects (FIG. 20).

[1] = tested on: neurons exposed to Aβ25-35 peptide; experiment: LDH release cytotoxicity assay in neurons exposed to Aβ-peptide; conditions: Aβ25-35 peptide 25 μM alone, 24 h; control 24.7±0.45%; mean±SE
Protocol: To examine the effects of the aqueous extract LBA from Lycium barbarum on Aβ-peptide-induced neurotoxicity, neurons were pretreated with LBA (ranging from 0.1 μg/ml to 500 μg/ml) for 1 hour, followed by a 24-hour exposure to Aβ25-35 peptide (25 μM). For cytotoxicity analysis, the extracellular concentration of LDH was measured. […] For the control group, the release of LDH representing natural neuronal death was 24.7±0.45% of the total LDH release. Neurons exposed to Aβ-peptide increased the release of LDH to 38.0±0.92%.
The effects of the basic extract LBB from Lycium barbarum on Aβ-peptide-induced neurotoxicity were also investigated using the same approaches as for LBA. For cytotoxicity analysis, the extracellular concentration of LDH was measured.

caspase-2 = experiment: colorimetric caspase-2 activity assay in neurons exposed to Aβ-peptide; conditions: Aβ-peptide alone
Source text: Caspase-2 is an important index for neuronal apoptosis for β-amyloid peptide neurotoxicity. It has been reported that Aβ-peptide triggered activation of caspase-2. […] Therefore, we used the colorimetric method to determine caspase-2 activity. For caspase-2 activity, the trend was similar to that of caspase-3. Neurons exposed to Aβ-peptide triggered a 1.6-fold increase in caspase-2 activity.
Caspase-2 is an important index for neuronal apoptosis for β-amyloid peptide neurotoxicity. For caspase-2 activity, the trend was similar to that of caspase-3. We also used colorimetric method to determine caspase-2 activity.

[2] = tested on: neurons exposed to Aβ peptide; experiment: morphological changes of neurons exposed to Aβ-peptide; conditions: LBA 100 μg/ml, LBB 500 μg/ml, heparin 1 μM; 1 h, then Aβ peptide 25 μM 24 h
Protocol: Since LBA and LBB contain both carbohydrate and amino acid, we use heparin to make a comparison of their protective effects. Neurons were pre-incubated with either heparin (1 μM), LBA (100 μg/ml) or LBB (500 μg/ml) for 1 hour, followed by a 24-hour exposure to Aβ peptide (25 μM). The morphology of neurons after different treatments is shown in FIG. 12, in which (A) Control, (B) Aβ-peptide alone, (C) LBA (100 μg/ml), (D) LBA (100 μg/ml)+Aβ, (E) LBB (500 μg/ml), (F) LBB (500 μg/ml)+Aβ, (G) Heparin (1 μM) and (H) Heparin (1 μM)+Aβ. […] In B, neurons treated with Aβ-peptide for 24 hours undergo apoptosis, as shown by the destruction of the fine neurite network. […] G and H were neurons pre-incubated with heparin, and then without and with Aβ-peptide exposure. […] Based on the morphology of neurons, the mode of neuroprotection of LBA and LBB is somewhat different to that of heparin.
as §1

`[Cl-].[Li+]` [LiCl, Lithium Chloride] was tested, and the “caspase-3 activity as percent toxicity” value (caspase-3; 850 μ/ml (20 mM), 1 h pretreatment, Aβ25-35 25 μM 24 h, lowest value) was 8.5% and the “toxicity to neurons (caspase-3 percent toxicity)” value (caspase-3; about 85 μg/ml (2 mM), Aβ25-35 25 μM 24 h) was “toxic to neurons”.
For `Oc1c2ccccc2c2c3c(cccc13)N=N2` [SP600125], the “caspase-3 activity as % toxicity” value (caspase-3; 1.1 μg/ml (5 μM), 1 h pretreatment, Aβ-peptide 25 μM 16 h) was 23.8%, the “caspase-3 activity as % toxicity” value (caspase-3; 4.4 μg/ml (20 μM), 1 h pretreatment, Aβ-peptide 25 μM 16 h) was 69.3% and the “caspase-3 activity as % toxicity” value (caspase-3; more than 20 μM, data not shown) was 100%.
For “Aβ-peptide: β-amyloid peptide fragment 25-35 used at 25 μM as the neurotoxic challenge (GSNKGAIIGLM; Amyloid-beta protein 42; UniProt P05067 696-706, looked up, fragment)”, the “release of LDH, percentage of total LDH release” value [1] was 38.0±0.92%, the caspase-3 activity (caspase-3; Aβ-peptide treated group, no extract) was 2.13 fold and the caspase-2 activity (caspase-2) was 1.6 fold.
With heparin the “morphology of neurons after pre-incubation and Aβ peptide” value [2] was “elongated neurons”.
